# Reference: publication PMC8729770, “In Vitro Evaluation of Antimicrobial Peptides from the Black Soldier Fly (Hermetia Illucens) against a Selection of Human Pathogens” (Microbiology Spectrum, 2022)
# Where two headings read alike, the source gives them in different places. Ends that are not written are not given here. Peptide text beside a SMILES is read from it.
# How the values were obtained:
# S. aureus ATCC 6538 = format: cell-based, Staphylococcus aureus; conditions: for MIC S. aureus ATCC 6538: determined visually, 16 h; for MBC S. aureus ATCC 6538: wells without visual growth plated on MHA, ≥3 log reduction vs growth control
# Protocol: (§1) To detect antimicrobial activity of the BSF AMPs, the peptide library underwent screening against a panel of microorganisms, consisting of S. aureus ATCC 6538, E. coli ATCC 8739, P. aeruginosa ATCC 9027, C. albicans B59630, and A. fumigatus B42928. Serial dilutions of the peptides were prepared from the DMSO stock solutions in sterile demineralized water in 96-well plates using an automated liquid-handling workstation (Beckman Coulter Biomek 3000) in end volumes of 10 μL. The final in-plate concentration of DMSO was <1%. Peptide concentrations ranged from 64 μM to 0.25 μM for the first evaluation, and from 32 μM to 0.016 μM for the independent repeat. As references, doxycycline (Sigma-Aldrich; S. aureus, E. coli, P. aeruginosa), flucytosine (Sigma-Aldrich; C. albicans), and econazole (Sigma-Aldrich; A. fumigatus) were used. Suspensions of a starting inoculum of 5 × 10^3 CFU/mL (E. coli, S. aureus, C. albicans, A. fumigatus) and 5 × 10^4 CFU/mL (P. aeruginosa) were prepared in MHB (bacterial species) or RPMI medium (fungal species) and 190 μL was added to the 96-well plates. Plates were incubated for 16 h (E. coli, S. aureus, P. aeruginosa), 24 h (C. albicans), or 48 h (A. fumigatus) at 37°C. After incubation, read-out of the antimicrobial activity was performed using a resazurin assay. Then, 20 μL of a 0.01% (wt/vol) resazurin (Sigma-Aldrich) solution was added to each well and plates were incubated for 15 min (S. aureus), 30 min (E. coli), 45 min (P. aeruginosa), 4 h (C. albicans), or 17 h (A. fumigatus) to allow resazurin reduction to take place. Fluorescence was read using a microplate reader (Telix) at λexcitation = 550 nm and λemission = 590. […] MIC values were determined visually. Medium in the wells with no visual growth was plated on MHA to detect the MBC, defined as ≥3 log reduction compared with the growth control.
# P. aeruginosa ATCC 9027 = format: cell-based, Pseudomonas aeruginosa
# Protocol: as §1
# E. coli ATCC 8739 = format: cell-based, Escherichia coli
# Protocol: as §1
# [1] = repeat 1, plated on MHA, ≥3 log reduction vs growth control
# [2] = repeat 2, 32-0.016 μM, determined visually, 16 h
# [3] = repeat 2, plated on MHA, ≥3 log reduction vs growth control
# [4] = repeat 1, 64-0.25 μM, determined visually, 16 h
Molecule,"MIC S. aureus ATCC 6538 (S. aureus ATCC 6538; repeat 1, 64-0.25 μM)","MIC S. aureus ATCC 6538 (S. aureus ATCC 6538; repeat 2, 32-0.016 μM)","MIC P. aeruginosa ATCC 9027 (P. aeruginosa ATCC 9027; ATCC 9027, 16 h)",MBC P. aeruginosa ATCC 9027 (P. aeruginosa ATCC 9027; [1]),MIC P. aeruginosa ATCC 9027 (P. aeruginosa ATCC 9027; [2]),MBC P. aeruginosa ATCC 9027 (P. aeruginosa ATCC 9027; [3]),MBC S. aureus ATCC 6538 (S. aureus ATCC 6538; repeat 1),MBC S. aureus ATCC 6538 (S. aureus ATCC 6538; repeat 2),MIC E. coli ATCC 8739 (E. coli ATCC 8739; [4]),MIC E. coli ATCC 8739 (E. coli ATCC 8739; [2]),MIC P. aeruginosa ATCC 9027 (P. aeruginosa ATCC 9027; [4]),MBC E. coli ATCC 8739 (E. coli ATCC 8739; [1]),MBC E. coli ATCC 8739 (E. coli ATCC 8739; [3]),"MBC E. coli ATCC 8739 (E. coli ATCC 8739; ATCC 8739, 16 h)","MBC P. aeruginosa ATCC 9027 (P. aeruginosa ATCC 9027; ATCC 9027, 16 h)","MIC E. coli ATCC 8739 (E. coli ATCC 8739; ATCC 8739, 16 h)",bactericidal or bacteriostatic mechanism (S. aureus ATCC 6538; MBC determination)
KSWWKKVFKPVERAGQRIRDASIKGLAVAQQGANVLSTIRGGPPVVAPPPQV-NH2 [Hill-Cec13],> 64.00 µM,> 32.00 µM,1.00 µM,64.00 µM,2.00 µM,2.00 µM,–,–,–,–,–,–,–,–,–,–,–
CC[C@H](C)[C@H](NC(=O)[C@H](CS)NC(=O)[C@H](Cc1c[nH]cn1)NC(=O)[C@H](C)NC(=O)[C@H](C)NC(=O)[C@H](CS)NC(=O)[C@H](C)NC(=O)[C@H](C)NC(=O)[C@H](Cc1c[nH]cn1)NC(=O)CNC(=O)[C@@H](NC(=O)[C@H](CCCCN)NC(=O)[C@H](Cc1ccccc1)NC(=O)[C@@H]1CCCN1C(=O)[C@H](CO)NC(=O)[C@H](CC(C)C)NC(=O)[C@H](CC(C)C)NC(=O)[C@H](CC(=O)O)NC(=O)[C@H](CS)NC(=O)[C@@H](NC(=O)[C@H](C)N)[C@@H](C)O)C(C)C)C(=O)N[C@@H](C)C(=O)N[C@@H](CCCNC(=N)N)C(=O)NCC(=O)N[C@@H](CCCCN)C(=O)N[C@@H](CCCNC(=N)N)C(=O)NCC(=O)NCC(=O)N[C@@H](Cc1c[nH]c2ccccc12)C(=O)N[C@@H](CS)C(=O)N[C@@H](CC(=O)O)C(=O)N[C@@H](CCCCN)C(=O)N[C@@H](CCCNC(=N)N)C(=O)N[C@@H](C)C(=O)N[C@H](C(=O)N[C@@H](CS)C(=O)N[C@@H](CC(N)=O)C(=O)N[C@@H](CS)C(=O)N[C@@H](CCCNC(=N)N)C(=O)N[C@@H](CCCCN)C(=O)O)C(C)C [Hill-Def2a] (H-ATCDLLSPFKVGHAACAAHCIARGKRGGWCDKRAVCNCRK-OH; N-terminus and C-terminus assumed),0.25 µM,2.00 µM,–,–,> 32.00 µM,–,static,static,> 64.00 µM,> 32.00 µM,> 64.00 µM,–,–,–,–,–,–
GWWKRVFKPVEKFGQRVRDAGVQGIAIAQQGANVLATARGGPPQQ-NH2 [Hill-Cec2],> 64.00 µM,> 32.00 µM,–,16.00 µM,2.00 µM,2.00 µM,–,–,1.00 µM,2.00 µM,4.00 µM,1.00 µM,2.00 µM,–,–,–,–
GWWKRVFKPVEKLGQRVRDAGIQGLEIAQQGANVLATARGGPPQQ-NH2 [Hill-Cec3],> 64.00 µM,> 32.00 µM,–,16.00 µM,2.00 µM,2.00 µM,–,–,1.00 µM,0.50 µM,4.00 µM,1.00 µM,32.00 µM,–,–,–,–
RSLWKKLFKPVERAGQRIRDATIKGIVIAQQGANVLATIRGGPAIPPGQ-NH2 [Hill-Cec12],> 64.00 µM,> 32.00 µM,1.00 µM,static,2.00 µM,8.00 µM,–,–,0.25 µM,2.00 µM,–,–,8.00 µM,1.00 µM,–,–,–
SWFKKVFKPVEKVGQRVRDAGIQGVAIAQQGANVLATARGGPPH-NH2 [Hill-Cec5],–,–,–,–,–,–,–,–,–,–,–,–,–,0.50 µM,32.00 µM,–,–
GWWKRVFKPVEKFGQRVRDAGIQGIEIAQQGANVLATARGGPPQQ-NH2 [Hill-Cec8],> 64.00 µM,> 32.00 µM,4.00 µM,64.00 µM,8.00 µM,8.00 µM,–,–,–,2.00 µM,–,–,8.00 µM,1.00 µM,–,1.00 µM,–
CC[C@H](C)[C@H](NC(=O)[C@H](CS)NC(=O)[C@H](Cc1c[nH]cn1)NC(=O)[C@H](CC(C)C)NC(=O)[C@H](C)NC(=O)[C@H](CS)NC(=O)[C@H](C)NC(=O)[C@H](C)NC(=O)[C@H](Cc1c[nH]cn1)NC(=O)CNC(=O)[C@@H](NC(=O)[C@H](CCCCN)NC(=O)[C@H](Cc1ccccc1)NC(=O)[C@@H]1CCCN1C(=O)[C@H](CO)NC(=O)[C@H](CC(C)C)NC(=O)[C@H](CC(C)C)NC(=O)[C@H](CC(=O)O)NC(=O)[C@H](CS)NC(=O)[C@@H](NC(=O)[C@H](C)N)[C@@H](C)O)C(C)C)C(=O)N[C@@H](C)C(=O)N[C@@H](CC(C)C)C(=O)NCC(=O)N[C@@H](CCCNC(=N)N)C(=O)N[C@@H](CCCNC(=N)N)C(=O)NCC(=O)NCC(=O)N[C@@H](Cc1c[nH]c2ccccc12)C(=O)N[C@@H](CS)C(=O)N[C@@H](CC(=O)O)C(=O)NCC(=O)N[C@@H](CCCNC(=N)N)C(=O)N[C@@H](C)C(=O)N[C@H](C(=O)N[C@@H](CS)C(=O)N[C@@H](CC(N)=O)C(=O)N[C@@H](CS)C(=O)N[C@@H](CCCNC(=N)N)C(=O)N[C@@H](CCCNC(=N)N)C(=O)O)C(C)C [Hill-Def4] (H-ATCDLLSPFKVGHAACALHCIALGRRGGWCDGRAVCNCRR-OH; N-terminus and C-terminus assumed),1.00 µM,8.00 µM,–,–,> 32.00 µM,–,static,static,> 64.00 µM,> 32.00 µM,> 64.00 µM,–,–,–,–,–,bacteriostatic
GWWKRVFKPVERLGQRVRDAGIQGLQIAQQGANVLATVRGGPPQQ-NH2 [Hill-Cec4],> 64.00 µM,> 32.00 µM,–,16.00 µM,2.00 µM,2.00 µM,–,–,1.00 µM,2.00 µM,1.00 µM,static,2.00 µM,–,–,–,–
GWWKRVFKPVEKLGQRVRDAGIQGLEIAQQGANVLATVRGGPPQQ-NH2 [Hill-Cec9],> 64.00 µM,> 32.00 µM,1.00 µM,static,2.00 µM,2.00 µM,–,–,–,–,–,–,–,–,–,–,–
